Reference: US20250000835A1, “SYNERGIES OF 1- BETA-CARYOPHYLLENE, CANNABIDIOL AND TRIBUTYRIN; 2- RETINYL PALMITATE, BETA-CARYOPHYLLENE AND CANNABIDIOL; 3- RETINYL PALMITATE AND BETA-CARYOPHYLLENE IN CONTROLING INFLAMMATION, METABOLIC HEALTH, INSULIN SENSITIVITY/ GLYCEMIC - GLUCOSE UPTAKE & MANAGEMENT, AND FATTY LIVER/ NAFLD” (FLG Sciences, LLC, priority 2022, published 2025)

Legend:
Format in all cases: cell-based
[1] = tested on: C2C12 myotubes (muscle cells); assay: Cellular antioxidant (AOx) capacity, Cu2+ ion conversion assay, C2C12 muscle cells; settings: vs DMSO control
Experimental: (§1) There were two different treatment experiments including: Cells treated with compounds 1-5 above for 3 hours; Cells treated with compounds 1-5 above for 12 hours with a concomitant TNF-alpha treatment (15 ng/mL); Cell treatments were performed using C2C12 myotubes (muscle cells), and AML-12 cells (liver cells).
(§2) There are also combination formulations, where the following combination formulations were tested: 6) Control or “vehicle” (DMSO only); 7) Vitamin A, or “VitA” (1.2 μM)+Beta-caryophyllene (100 ng/mL)+Tributyrin (10 μM); 8) Vitamin A, or “VitA” (1.2 μM)+Beta-caryophyllene (100 ng/mL)+CBD (95 ng/ml); 9) Beta-caryophyllene (100 ng/mL)+CBD (95 ng/mL)+Tributyrin (10 μM); 10) Vitamin A, or “VitA” (1.2 μM)+Beta-caryophyllene (100 ng/mL).
(§3) As with single ingredients, two different treatment experiments occurred with these combos including: Cells treated with compounds 1-5 above for 3 hours. Cells treated with compounds 1-5 above for 12 hours with a concomitant TNF-alpha treatment (15 ng/ml)
(§4) All cells were grown to confluence using cell-specific media and additives.
(§5) The day of treatment, culture media was spiked with the appropriate ingredients (these are termed “treatment media”) […]
(§6) Total antioxidant capacity was assessed using a Cu2+ ion is conversion assay.

AML-12 liver cells [2] = assay: Cellular antioxidant (AOx) capacity, Cu2+ ion conversion assay, AML-12 liver cells; settings: 3 h treatment, vs DMSO control, CBD 95 ng/ml, VitA 1.2 μM, tributyrin 10 μM, beta-caryophyllene 100 ng/ml
Experimental: as §1, §2, §3, §4, §5, §6

PPARγ [3] = molecular target: T1, PPARγ (Mus musculus, UniProt P37238); assay: PPARγ DNA binding activity, C2C12 muscle cells; settings: vs DMSO control
T1 construct: endogenous in cells; host or cells: C2C12 myotubes (muscle cells)
T1 sequence (P37238 1-505): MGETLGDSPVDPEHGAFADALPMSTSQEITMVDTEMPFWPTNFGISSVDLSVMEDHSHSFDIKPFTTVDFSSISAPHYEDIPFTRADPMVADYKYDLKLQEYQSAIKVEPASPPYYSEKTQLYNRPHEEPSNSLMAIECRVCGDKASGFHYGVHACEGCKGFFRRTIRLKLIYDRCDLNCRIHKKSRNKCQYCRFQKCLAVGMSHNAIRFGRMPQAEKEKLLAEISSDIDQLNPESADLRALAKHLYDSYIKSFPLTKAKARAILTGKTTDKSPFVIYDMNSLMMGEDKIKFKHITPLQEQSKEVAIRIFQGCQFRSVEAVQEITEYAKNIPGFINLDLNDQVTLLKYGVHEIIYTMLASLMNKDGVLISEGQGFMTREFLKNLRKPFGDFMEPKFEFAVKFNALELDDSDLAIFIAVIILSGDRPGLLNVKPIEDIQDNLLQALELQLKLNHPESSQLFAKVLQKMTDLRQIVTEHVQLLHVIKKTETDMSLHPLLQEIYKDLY
Experimental: as §1, §2, §3, §4
(§7) The day of treatment, culture media was spiked with the appropriate ingredients (these are termed “treatment media”)
(§8) After either the 3-h or 12-h treatments described above, treatment media was removed, cells were rinsed with 1× phosphate-buffered saline, and general cell lysis buffer (Tris-based with detergent) was used to lyse cells
(§9) Cells were scraped off the plate with a rubber policeman in the lysis buffer, the slurry was placed in 1.7 mL tubes, and lysates were frozen at −80° C. until the respective assays discussed below.
(§10) There are n=5-6 replicates per treatment condition.
(§11) PPARγ DNA binding activity was assessed using a plate that was pre-coated with a PPAR-gamma consensus binding sequence. Thereafter, antibody-based methods were used to assess the amount of bound transcription factor, and data were normalized to total protein loaded in the assay.

PPARγ [4] = molecular target: T1, PPARγ; assay: PPARγ DNA binding activity, AML-12 liver cells; settings: vs DMSO control
Experimental: as §1, §2, §3, §4, §7, §8, §9, §10, §11

phosphorylated p65/NF-κB = assay: Inflammatory signaling (phosphorylated NF-kB) by Western blotting, C2C12 muscle cells; settings: vs DMSO control
Experimental: as §1, §2, §3, §4, §7, §8, §9, §10
SOD2, SOD1, phosphorylated p65/NF-κB, pro-caspase 1, and NLRP3 were assayed using Western blotting methods.

SOD2 = SOD2 protein levels by Western blotting, C2C12 muscle cells; settings: 3 h and 12 h with TNF-alpha, treatment not told apart in text, vs DMSO control
Experimental: as §1, §2, §3, §4, §5

AML-12 liver cells [5] = assay: Cellular glucose levels, colorimetric glucose oxidase assay, AML-12 liver cells; settings: 12 h treatment with TNF-alpha (15 ng/mL), vs DMSO control
Experimental: as §1, §2, §3, §4, §5

[6] = tested on: C2C12 myotubes (muscle cells); assay: Cellular glucose levels, colorimetric glucose oxidase assay, C2C12 muscle cells; settings: 12 h treatment with TNF-alpha (15 ng/mL), vs DMSO control
Experimental: as §1, §2, §3, §4, §5

[7] = 12 h treatment with TNF-alpha (15 ng/mL)

Compound: CCCCCCCCCCCCCCCC(=O)OC/C=C(C)/C=C/C=C(C)/C=C/C1=C(C)CCCC1(C)C [vitamin A, Retinyl palmitate]
- Cellular AOx capacity vs control ([1]; 3 h treatment, CBD 95 ng/ml, VitA 1.2 μM, tributyrin 10 μM, beta-caryophyllene 100 ng/ml): expressed significance values
- Cellular AOx capacity vs control (AML-12 liver cells [2]): showed an antioxidant capacity
- PPARγ DNA binding activity vs control (PPARγ [3]; 3 h treatment): significance value greater than control group
- PPARγ DNA binding activity vs control (PPARγ [4]; 3 h treatment): significance values greater than control group

Compound: C=C1CC/C=C(\C)CC[C@@H]2[C@@H]1CC2(C)C [BCP, beta-caryophyllene]
- NF-kB phosphorylation vs control (phosphorylated p65/NF-κB; [7]): significant values in reducing NF-kB phosphorylation
- PPARγ DNA binding activity vs control (PPARγ [4]; 3 h treatment): significance values greater than control group

Compound: cannabidiol [CBD]
- NF-kB phosphorylation vs control (phosphorylated p65/NF-κB; 3 h treatment): the only one with significant value among the ingredients
- Cellular AOx capacity vs control [1, 7]: expressed significance value
- Cellular AOx capacity vs control (AML-12 liver cells [2]): expressed results with significance value
- PPARγ DNA binding activity vs control (PPARγ [3]; [7]): values of greater significance than the control
- SOD2 protein levels vs control (SOD2): significance value less the control

Compound: CCCC(=O)OCC(COC(=O)CCC)OC(=O)CCC [tributyrin, Tributyrin]
- NF-kB phosphorylation vs control (phosphorylated p65/NF-κB; [7]): significant values in reducing NF-kB phosphorylation
- Cellular glucose levels vs control (AML-12 liver cells [5]): increases cell glucose
- Cellular glucose levels vs control [6]: increases cell glucose
- PPARγ DNA binding activity vs control (PPARγ [3]; [7]): values of greater significance than the control
- SOD2 protein levels vs control (SOD2): significance value less the control
- PPARγ DNA binding activity vs control (PPARγ [4]; 3 h treatment): significance values greater than control group
- PPARγ DNA binding activity vs control (PPARγ [4]; [7]): significance value greater than control group
